What was measured:
[1] = target: NK1 (Homo sapiens, UniProt P25103); assay: Signal transduction (ST), intracellular Ca++ (FLIPR), NK1 antagonistic activity; format: cell-based; conditions: read-out: pIC50 NK1 (converted)
Procedure: (§1) This test evaluates in vitro functional NK1 antagonistic activity. For the measurements of intracellular Ca^++ concentrations the cells were grown on 96-well (black wall/transparent bottom) plates from Costar for 2 days until they reached confluence. The cells were loaded with 2 μM Fluo3 in DMEM containing 0.1% BSA and 2.5 mM probenecid for 1 h at 37° C. They were washed 3× with a Krebs buffer (140 mM NaCl, 1 mM MgCl2×6H2O, 5 mM KCl, 10 mM glucose, 5 mM HEPES; 1.25 mM CaCl2; pH 7.4) containing 2.5 mM probenecid and 0.1% BSA (Ca^++-buffer). The cells were preincubated with a concentration range of antagonists for 20 min at RT and Ca^++-signals after addition of the agonists were measured in a Fluorescence Image Plate Reader (FLIPR from Molecular Devices, Crawley, England). The peak of the Ca^++-transient was considered as the relevant signal and the mean values of corresponding wells were analysed as described below.
The sigmoidal dose response curves were analysed by computerised curve-fitting, using the GraphPad Program. […] For antagonist responses the IC50-value was calculated using non-linear regression. […]

[2] = target: T1, NK3 (Homo sapiens, UniProt P29371); assay: Signal transduction (ST), intracellular Ca++ (FLIPR), NK3; format: cell-based; conditions: read-out: pIC50 NK3 (converted)
T1 sequence (P29371 1-465): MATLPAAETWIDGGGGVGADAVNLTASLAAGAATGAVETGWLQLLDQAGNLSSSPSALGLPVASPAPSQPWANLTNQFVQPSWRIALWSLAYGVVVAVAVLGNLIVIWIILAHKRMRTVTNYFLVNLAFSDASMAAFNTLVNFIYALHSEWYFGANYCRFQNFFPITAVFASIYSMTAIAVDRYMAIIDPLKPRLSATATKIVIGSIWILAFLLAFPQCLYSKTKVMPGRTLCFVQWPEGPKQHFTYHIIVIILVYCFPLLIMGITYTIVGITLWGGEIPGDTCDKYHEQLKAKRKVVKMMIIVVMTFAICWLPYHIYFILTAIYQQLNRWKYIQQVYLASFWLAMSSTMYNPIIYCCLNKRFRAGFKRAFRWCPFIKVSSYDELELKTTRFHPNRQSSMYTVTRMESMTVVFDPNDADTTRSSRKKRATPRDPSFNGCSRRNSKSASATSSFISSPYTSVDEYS
Procedure: [The procedure below names another target; the source lists this target under the same test.] as §1
The sigmoidal dose response curves were analysed by computerised curve-fitting, using the GraphPad Program. […] For antagonist responses the IC50-value was calculated using non-linear regression.
The last columns indicates—without being limited therefore—for which the compounds might be most suitable. Of course, since for some neurokinin receptors no data was determined, it is obvious that these compounds might be attributed to another suitable use.

Sequence of NK1 (P25103 whole entry): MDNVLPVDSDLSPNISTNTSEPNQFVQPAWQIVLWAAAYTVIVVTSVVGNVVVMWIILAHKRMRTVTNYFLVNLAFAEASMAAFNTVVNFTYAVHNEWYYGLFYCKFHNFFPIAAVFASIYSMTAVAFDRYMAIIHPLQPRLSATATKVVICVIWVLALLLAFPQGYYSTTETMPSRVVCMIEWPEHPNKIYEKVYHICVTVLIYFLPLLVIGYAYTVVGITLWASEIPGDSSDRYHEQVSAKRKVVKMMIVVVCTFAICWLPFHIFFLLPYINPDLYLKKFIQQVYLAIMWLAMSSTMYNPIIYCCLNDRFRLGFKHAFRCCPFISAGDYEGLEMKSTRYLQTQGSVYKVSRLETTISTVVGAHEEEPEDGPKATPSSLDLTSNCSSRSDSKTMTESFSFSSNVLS

Row | Structure (SMILES) | IC50 [1] [nM] | IC50 [2] [nM]
1 | O=C(c1ccccc1Cl)N1CCC(N2CCN([C@@H]3CCN(C(=O)c4cc(C(F)(F)F)cc(C(F)(F)F)c4)[C@H](Cc4ccc(Cl)c(Cl)c4)C3)CC2)C1 (relative stereo) [Compound 141] | 126 | 3160
2 | O=C(c1cc(C(F)(F)F)cc(C(F)(F)F)c1)N1CC[C@@H](N2CCN(C3CCN(S(=O)(=O)c4cccs4)C3)CC2)C[C@H]1Cc1ccc(Cl)c(Cl)c1 (relative stereo) [Compound 142] | 126 | 794
3 | O=C(C1CC1)N1CCC(N2CCN([C@@H]3CCN(C(=O)c4cc(C(F)(F)F)cc(C(F)(F)F)c4)[C@H](Cc4ccc(Cl)c(Cl)c4)C3)CC2)C1 (relative stereo) [Compound 143] | 39.8 | 3160
4 | O=C(c1cc(C(F)(F)F)cc(C(F)(F)F)c1)N1CC[C@H](N2CCN(C3CCN(S(=O)(=O)c4cccs4)C3)CC2)C[C@H]1Cc1ccc(Cl)c(Cl)c1 (relative stereo) [Compound 163] | 25.1 | 158
5 | O=C(C1CC1)N1CCC(N2CCN(C3CCN(C(=O)c4cc(C(F)(F)F)cc(C(F)(F)F)c4)C(Cc4ccccc4)C3)CC2)C1 (single isomer, unassigned) [Compound 70] | 12.6 | 501
6 | O=C(c1ccccc1Cl)N1CCC(N2CCN(C3CCN(C(=O)c4cc(C(F)(F)F)cc(C(F)(F)F)c4)C(Cc4ccccc4)C3)CC2)C1 (single isomer, unassigned) [Compound 87] | 126 | 1260
7 | O=C(C1CCOC1)N1CCC(N2CCN(C3CCN(C(=O)c4cc(C(F)(F)F)cc(C(F)(F)F)c4)C(Cc4ccccc4)C3)CC2)C1 (single isomer, unassigned) [Compound 129] | 251 | 
8 | O=C(C1CC1)N1CCC(N2CCN(C3CCN(C(=O)c4cc(C(F)(F)F)cc(C(F)(F)F)c4)C(Cc4ccccc4)C3)CC2)C1 (single isomer, unassigned) [Compound 137] | 158 | 6310
9 | O=C(c1ccoc1)N1CCC(N2CCN(C3CCN(C(=O)c4cc(C(F)(F)F)cc(C(F)(F)F)c4)C(Cc4ccccc4)C3)CC2)C1 (single isomer, unassigned) [Compound 138] | 126 | 6310
10 | O=C(C1CCOC1)N1CCC(N2CCN(C3CCN(C(=O)c4cc(C(F)(F)F)cc(C(F)(F)F)c4)C(Cc4ccccc4)C3)CC2)C1 (single isomer, unassigned) [Compound 139] | 158 | 6310
11 | O=C(c1ccccc1Cl)N1CCC(N2CCN(C3CCN(C(=O)c4cc(C(F)(F)F)cc(C(F)(F)F)c4)C(Cc4ccccc4)C3)CC2)C1 (single isomer, unassigned) [Compound 160] | 10 | 398
12 | CC(C)(C)OC(=O)N1CCC(N2CCN(C3CCN(C(=O)c4cc(C(F)(F)F)cc(C(F)(F)F)c4)C(Cc4ccc(Cl)c(Cl)c4)C3)CC2)C1 (single isomer, unassigned) [Compound 165] | 50.1 | 794
13 | O=C(c1cc(C(F)(F)F)cc(C(F)(F)F)c1)N1CCC(N2CCN(C3CCNC3)CC2)CC1Cc1ccc(F)c(F)c1 (single isomer, unassigned) [Compound 212] | 50.1 | 
14 | O=C(c1cc(C(F)(F)F)cc(C(F)(F)F)c1)N1CCC(N2CCN(C3CCNC3)CC2)CC1Cc1ccc(F)c(F)c1 (single isomer, unassigned) [Compound 225] | 15.8 | 
15 | CC(C)(C)OC(=O)N1CCC(N2CCN(C3CCN(C(=O)c4cc(C(F)(F)F)cc(C(F)(F)F)c4)C(Cc4ccc(Cl)c(Cl)c4)C3)CC2)C1 (single isomer, unassigned) [Compound 243] | 200 | 
16 | O=C(c1cc(C(F)(F)F)cc(C(F)(F)F)c1)N1CCC(N2CCN(C3CCN(Cc4ccccc4)C3)CC2)CC1Cc1ccccc1 (stereo not shown) [Compound 1] | 100 | 
17 | O=C(c1cc(C(F)(F)F)cc(C(F)(F)F)c1)N1CCC(N2CCN(C3CCNC3)CC2)CC1Cc1ccccc1 (stereo not shown) [Compound 2] | 63.1 | 
18 | COC(=O)CCN1CCC(N2CCN(C3CCN(C(=O)c4cc(C(F)(F)F)cc(C(F)(F)F)c4)C(Cc4ccccc4)C3)CC2)C1 (stereo not shown) [Compound 80] | 100 | 
19 | Cc1cc(C)cc(C(=O)N2CC[C@H](N3CCN(C4CCN(C(=O)c5ccoc5)C4)CC3)C[C@H]2Cc2ccccc2)c1 (stereo partly shown) [Compound 85] | 31.6 | 
20 | CN1CCN(C(C(=O)N2CCC(N3CCN([C@H]4CCN(C(=O)c5cc(C(F)(F)F)cc(C(F)(F)F)c5)[C@H](Cc5ccccc5)C4)CC3)C2)c2ccccc2)CC1 (stereo partly shown) [Compound 105] | 63.1 | 
21 | O=C(c1cc(C(F)(F)F)cc(C(F)(F)F)c1)N1CC[C@H](N2CCN(C3CCNC3)CC2)C[C@@H]1Cc1ccccc1 (stereo partly shown) [Compound 118] | 126 | 

Row | Structure (SMILES) | IC50 [1] [nM] | IC50 [2] [nM]
22 | O=C(c1ccccc1)N1CCC(N2CCN([C@@H]3CCN(C(=O)c4cc(C(F)(F)F)cc(C(F)(F)F)c4)[C@H](Cc4ccccc4)C3)CC2)C1 (stereo partly shown) [Compound 136] | 200 | 
23 | O=C([C@@H]1CCCN1)N1CCC(N2CCN([C@H]3CCN(C(=O)c4cc(C(F)(F)F)cc(C(F)(F)F)c4)[C@H](Cc4ccccc4)C3)CC2)C1 (stereo partly shown) [Compound 144] | 126 | 
24 | O=C(c1cc(C(F)(F)F)cc(C(F)(F)F)c1)N1CC[C@H](N2CCN([C@H]3CCNC3)CC2)C[C@H]1Cc1ccccc1 [Compound 148] | 63.1 | 
25 | O=C(c1cc(C(F)(F)F)cc(C(F)(F)F)c1)N1CC[C@H](N2CCN([C@@H]3CCNC3)CC2)C[C@H]1Cc1ccccc1 [Compound 149] | 39.8 | 
26 | CN(C)CCN1CCC[C@H]1C(=O)N1CCC(N2CCN([C@H]3CCN(C(=O)c4cc(C(F)(F)F)cc(C(F)(F)F)c4)[C@H](Cc4ccccc4)C3)CC2)C1 (stereo partly shown) [Compound 185] | 50.1 | 
27 | CC(=O)N1CCC[C@H]1C(=O)N1CCC(N2CCN([C@H]3CCN(C(=O)c4cc(C(F)(F)F)cc(C(F)(F)F)c4)[C@H](Cc4ccccc4)C3)CC2)C1 (stereo partly shown) [Compound 186] | 100 | 
28 | O=C(CN1CCCC1)N1CCC(N2CCN(C3CCN(C(=O)c4cc(C(F)(F)F)cc(C(F)(F)F)c4)C(Cc4ccccc4)C3)CC2)C1 (stereo not shown) [Compound 196] | 20 | 
29 | O=C(CN1CCOCC1)N1CCC(N2CCN([C@H]3CCN(C(=O)c4cc(C(F)(F)F)cc(C(F)(F)F)c4)[C@H](Cc4ccccc4)C3)CC2)C1 (stereo partly shown) [Compound 197] | 25.1 | 
30 | O=C(CN1CCNCC1)N1CCC(N2CCN([C@H]3CCN(C(=O)c4cc(C(F)(F)F)cc(C(F)(F)F)c4)[C@H](Cc4ccccc4)C3)CC2)C1 (stereo partly shown) [Compound 201] | 50.1 | 
31 | Cc1nccn1CC(=O)N1CCC(N2CCN(C3CCN(C(=O)c4cc(C(F)(F)F)cc(C(F)(F)F)c4)C(Cc4ccccc4)C3)CC2)C1 (stereo not shown) [Compound 209] | 20 | 
32 | O=C(C1CCNC1)N1CCC(N2CCN([C@H]3CCN(C(=O)c4cc(C(F)(F)F)cc(C(F)(F)F)c4)[C@H](Cc4ccccc4)C3)CC2)C1 (stereo partly shown) [Compound 235] | 39.8 | 
33 | O=C(C1CCCNC1)N1CCC(N2CCN([C@H]3CCN(C(=O)c4cc(C(F)(F)F)cc(C(F)(F)F)c4)[C@H](Cc4ccccc4)C3)CC2)C1 (stereo partly shown) [Compound 240] | 31.6 | 
34 | O=C(C1CCNCC1)N1CCC(N2CCN(C3CCN(C(=O)c4cc(C(F)(F)F)cc(C(F)(F)F)c4)C(Cc4ccccc4)C3)CC2)C1 (stereo not shown) [Compound 241] | 31.6 | 
35 | O=C(c1cc(C(F)(F)F)cc(C(F)(F)F)c1)N1CCC(N2CCN(C3CCNC3)CC2)CC1Cc1ccc(Cl)c(Cl)c1 (stereo not shown) [Compound 244] | 79.4 | 
36 | O=C(C1CC1)N1CC[C@H](N2CCN([C@@H]3CCN(C(=O)c4cc(C(F)(F)F)cc(C(F)(F)F)c4)[C@@H](Cc4ccc(Cl)c(Cl)c4)C3)CC2)C1 [Compound 245] | 50.1 | 
37 | O=C(c1c(Cl)cccc1Cl)N1CC[C@H](N2CCN([C@@H]3CCN(C(=O)c4cc(C(F)(F)F)cc(C(F)(F)F)c4)[C@@H](Cc4ccc(Cl)c(Cl)c4)C3)CC2)C1 [Compound 246] | 126 | 
38 | CC(C)(C)C(=O)N1CC[C@H](N2CCN([C@@H]3CCN(C(=O)c4cc(C(F)(F)F)cc(C(F)(F)F)c4)[C@@H](Cc4ccc(Cl)c(Cl)c4)C3)CC2)C1 [Compound 247] | 31.6 | 
39 | CC(C)N/C(=C\[N+](=O)[O-])N1CCC(N2CCN(C3CCN(C(=O)c4cc(C(F)(F)F)cc(C(F)(F)F)c4)C(Cc4ccccc4)C3)CC2)C1 (stereo not shown) [Compound 354] | 31.6 | 
40 | COCCOCC(=O)N1CCC(N2CCN([C@H]3CCN(C(=O)c4cc(C(F)(F)F)cc(C(F)(F)F)c4)[C@H](Cc4ccccc4)C3)CC2)C1 (stereo partly shown) [Compound 390] | 20 | 
41 | O=C(c1cc(C(F)(F)F)cc(C(F)(F)F)c1)N1CCC(N2CCN(C3CCN(CCCCO)C3)CC2)CC1Cc1ccc(Cl)c(Cl)c1 (stereo not shown) [Compound 393] | 5.01 | 
